Experimental findings from patent US20040102423A1, “Spironolactone and angiotensin II antagonist combination therapy for treatment of congestive heart failure” (G.D. Searle & Co., priority 1995, published 2004) are described below.

For this test, the target named is angiotensin II AT1 receptor. Briefly: Assay A: Angiotensin II binding activity, rat uterine membrane preparation, 125I-AII displacement. As to the method:
Assay A: Antiotensin II Binding Activity
Compounds of the invention were tested for ability to bind to the smooth muscle angiotensin II receptor using a rat uterine membrane preparation. […] Rat uterine membranes were prepared from fresh tissue. All procedures were carried out at 4° C. Uteri were stripped of fat and homogenized in phosphate-buffered saline at pH 7.4 containing 5 mM EDTA. The homogenate was centrifuged at 1500×g for 20 min., and the supernatant was recentrifuged at 100,000×g for 60 min. The pellet was resuspended in buffer consisting of 2 mM EDTA and 50 mM Tris-HCl (pH 7.5) to a final protein concentration of 4 mg/ml. […] The reaction was initiated by the addition of membrane protein and the mixture was incubated at 25° C. for 60 min. The incubation was terminated with ice-cold 50 mM Tris-HCl (pH 7.5) and the mixture was filtered to separate membrane-bound labelled peptide from the free ligand. The incubation tube and filter were washed with ice-cold buffer. Filters were assayed for radioactivity in a Micromedic gamma counter. Nonspecific binding was defined as binding in the presence of 10 μM of unlabelled AII. Specific binding was calculated as total binding minus nonspecific binding. […] Binding data were analyzed by a nonlinear least-squares curve fitting program.
The compound `CCCCc1nc(CCC(C)C)n(Cc2ccc(-c3ccccc3-c3nnn[nH]3)cc2)n1` [Compound 27] showed an IC50 of 180 nM. The result for `CCCCc1cn(CC(CC)CC)c(=O)n1Cc1ccc(-c2ccccc2-c2nnn[nH]2)nc1` [Compound 215] reads 45 nM; that for `CCCCc1cn(-c2c(CC)cccc2CC)c(=O)n1Cc1ccc(-c2ccccc2-c2nnn[nH]2)nc1` [Compound 245], 98 nM. On to `CCCCc1nc(CCCC)n(Cc2ccc(-c3ccccc3-c3nnn[nH]3)nc2)n1` [Compound 252], for which the IC50 was determined as 13 nM. The result for `CCCCc1nc(CC(OCC)OCC)n(Cc2ccc(-c3ccccc3-c3nnn[nH]3)cc2)n1` [Compound 48] reads 680 nM; that for `CCCCc1cn(-c2ccccc2)c(=O)n1Cc1ccc(-c2ccccc2-c2nnn[nH]2)nc1` [Compound 226], 93 nM.

Turning to `CCCCc1nc(-c2ccccc2)nn1Cc1ccc(-c2ccccc2-c2nnn[nH]2)nc1` [Compound 270], the IC50 came out at 21 nM.

Turning to `CCCCc1nc(CCCC)n(Cc2ccc(-c3ccncc3-c3nnn[nH]3)cc2)n1` [Compound 254], the IC50 was 72 nM. In turn, `CCCCc1nc(CCCC)n(Cc2ccc(-c3cccnc3-c3nnn[nH]3)cc2)n1` [Compound 253] returned an IC50 of 2.6 nM. The result for `CCCCc1nc2c(O)nnc(O)c2n1Cc1ccc(-c2ccccc2-c2nnn[nH]2)cc1` [Compound 122] reads 46 nM; that for `CCCCc1nc(-c2ccccc2)nn1Cc1ccc(-c2ccccc2-c2nnn[nH]2)cc1` [Compound 32], 16 nM.

Take `CCCCc1nc(CCc2ccccc2)n(Cc2ccc(-c3ccccc3-c3nnn[nH]3)nc2)n1` [Compound 265]: the IC50 came to 110 nM. The result for `CCCCc1cn(-c2ccccc2C(C)(C)C)c(=O)n1Cc1ccc(-c2ccccc2-c2nnn[nH]2)nc1` [Compound 240] reads 120 nM. The result for `CCCCc1cn(CCCC)c(=O)n1Cc1ccc(-c2ccncc2-c2nnn[nH]2)cc1` [Compound 237] reads 3.6 nM; that for `CCCCc1nc(CCCC2CCCCC2)nn1Cc1ccc(-c2ccccc2-c2nnn[nH]2)cc1` [Compound 69], 15 nM; that for `CCCCc1cn(CC(C)(C)C)c(=O)n1Cc1ccc(-c2ccccc2-c2nnn[nH]2)nc1` [Compound 213], 51 nM.

`CCCCn1nc(CCc2ccccc2)nc1Cc1ccc(-c2ccccc2-c2nnn[nH]2)nc1` [Compound 162] came in with an IC50 of 380 nM. The result for `CCCCc1nc2c(OCC)nnc(OCC)c2n1Cc1ccc(-c2ccccc2-c2nnn[nH]2)cc1` [Compound 123] reads 50 nM; that for `CCCCc1nc(CCCO)nn1Cc1ccc(-c2ccccc2-c2nnn[nH]2)cc1` [Compound 56], 5 nM.

As for `CCCCc1ncnn1Cc1ccc(-c2ccccc2C(=O)O)cc1` [Compound 29], the half-inhibitory concentration (IC50) is 160 nM. For the compound `CCCCc1cn(C2CCCC2)c(=O)n1Cc1ccc(-c2ccccc2-c2nnn[nH]2)nc1` [Compound 218], the IC50 worked out at 9 nM. The result for `CCCCc1cn(CCC)c(=O)n1Cc1ccc(-c2ccccc2-c2nnn[nH]2)nc1` [Compound 207] reads 99 nM. The compound `CCCCc1nc(CC(C)(C)C)n(Cc2ccc(-c3ccccc3-c3nnn[nH]3)nc2)n1` [Compound 261] came in with an IC50 of 18 nM. With `CCCCc1nc(Cc2ccc(-c3ccccc3-c3nnn[nH]3)nc2)n(CC(C)(C)C)n1` [Compound 195], the IC50 was determined as 34 nM. The result for `CCCCc1nc(C(F)(F)CCC)nn1Cc1ccc(-c2ccccc2-c2nnn[nH]2)cc1` [Compound 21] reads 87 nM; that for `CCCCc1nc(Cc2ccc(-c3ccccc3-c3nnn[nH]3)nc2)n(CCCC)n1` [Compound 161], 28 nM. The result for `CCCCc1nn(CC(O)c2ccccc2)c(=O)n1Cc1ccc(-c2ccccc2-c2nn[nH]n2)cc1` (stereo not shown) [Compound 94] reads 5800 nM.

In turn, `CCCCn1nc(C(OC(C)C)OC(C)C)nc1Cc1ccc(-c2ccccc2-c2nnn[nH]2)nc1` [Compound 189] came in with an IC50 of 29 nM. `CCCc1nc(CCC)n(Cc2ccc(-c3ccccc3-c3nnn[nH]3)cc2)n1` [Compound 23] had a half-inhibitory concentration (IC50) of 430 nM. The compound `CCCCc1nc(CCCC)n(Cc2ccc(-c3ccccc3C(=O)O)nc2)n1` [Compound 251] registered an IC50 of 25 nM. The result for `CCCCc1nc(C)nn1Cc1ccc(-c2ccccc2-c2nnn[nH]2)cc1` [Compound 43] reads 19 nM; that for `CCCCn1nc(C(OCC)OCC)nc1Cc1ccc(-c2ccccc2-c2nnn[nH]2)nc1` [Compound 187], 770 nM; that for `CCCCc1nc(CCC(C)C)nn1Cc1ccc(-c2ccccc2-c2nnn[nH]2)cc1` [Compound 28], 570 nM. The result for `CCCCc1nc2c(Cl)nnc(Cl)c2n1Cc1ccc(-c2ccccc2-c2nnn[nH]2)cc1` [Compound 121] reads 46 nM; that for `CCCCc1nc(C(F)(F)CCC)n(Cc2ccc(-c3ccccc3-c3nnn[nH]3)nc2)n1` [Compound 259], 54 nM; that for `CCCCn1nc(C(=O)N(C)C(C)(C)C)nc1Cc1ccc(-c2ccccc2-c2nnn[nH]2)nc1` [Compound 182], 59 nM. The result for `CCCCc1nc(C(=O)NC)n(Cc2ccc(-c3ccccc3-c3nnn[nH]3)nc2)n1` [Compound 269] reads 9.7 nM; that for `CCCCc1nc(C(OC)OC)n(Cc2ccc(-c3ccccc3-c3nnn[nH]3)cc2)n1` [Compound 34], 640 nM. The compound `CCCCc1nn(CC(=O)c2ccccc2)c(=O)n1Cc1ccc(-c2ccccc2-c2nn[nH]n2)cc1` [Compound 93] registered an IC50 of 480 nM.

Take `CCCn1nc(C(F)F)nc1Cc1ccc(-c2ccccc2-c2nnn[nH]2)nc1` [Compound 173]: the IC50 amounted to 90 nM. The result for `CCCCc1nc(C=O)nn1Cc1ccc(-c2ccccc2-c2nnn[nH]2)cc1` [Compound 60] reads 2200 nM; that for `CCCCn1nc(C(=O)NC)nc1Cc1ccc(-c2ccccc2-c2nnn[nH]2)nc1` [Compound 183], 390 nM. The result for `CCCCc1nc(C(=O)N(C)C(C)(C)C)nn1Cc1ccc(-c2ccccc2-c2nnn[nH]2)nc1` [Compound 266] reads 290 nM; that for `CCCCc1nc(C(F)F)n(Cc2ccc(-c3ccccc3-c3nnn[nH]3)cc2)n1` [Compound 59], 120 nM; that for `CCCCCCCCc1nc(CCCC)n(Cc2ccc(-c3ccccc3-c3nnn[nH]3)cc2)n1` [Compound 40], 83 nM.

On to `CCCCc1cn(-c2c(C)cc(C)cc2C)c(=O)n1Cc1ccc(-c2ccccc2-c2nnn[nH]2)nc1` [Compound 243], for which the IC50 amounted to 250 nM. The result for `CCCCc1cn(CCC(C)(C)C)c(=O)n1Cc1ccc(-c2ccccc2-c2nnn[nH]2)nc1` [Compound 214] reads 65 nM. The result for `CCCCn1nc(C2OCC(C)(C)CO2)nc1Cc1ccc(-c2ccccc2-c2nnn[nH]2)nc1` [Compound 192] reads 140 nM. `CCCCc1cn(-c2c(C)cccc2Cl)c(=O)n1Cc1ccc(-c2ccccc2-c2nnn[nH]2)nc1` [Compound 242] returned an IC50 of 110 nM. The result for `CCCCc1nc(CC(C)(C)C)nn1Cc1ccc(-c2ccccc2-c2nnn[nH]2)nc1` [Compound 260] reads 220 nM. On to `CCCCc1cn(CC2CCCC2)c(=O)n1Cc1ccc(-c2ccccc2-c2nnn[nH]2)nc1` [Compound 219], for which the half-inhibitory concentration (IC50) was 14 nM. For `CCCCc1nc(C(=O)Cc2ccccc2)nn1Cc1ccc(-c2ccccc2-c2nnn[nH]2)cc1` [Compound 61], the IC50 stood at 110 nM. Compound `CCCCc1nc(Cc2ccccc2)nn1Cc1ccc(-c2ccccc2-c2nnn[nH]2)cc1` [Compound 55] had an IC50 of 80 nM. The compound `CCCCc1cn(CCCC)c(=O)n1Cc1ccc(-c2ccccc2-c2nnn[nH]2)nc1` [Compound 196] returned an IC50 of 31 nM. In turn, `CCCCn1nc(CCc2cccs2)nc1Cc1ccc(-c2ccccc2-c2nnn[nH]2)nc1` [Compound 164] showed an IC50 of 1700 nM. `CCCCc1nc(C)n(Cc2ccc(-c3ccccc3-c3nnn[nH]3)cc2)n1` [Compound 44] returned an IC50 of 16 nM. On to `CCCCc1cn(C23CC4CC(CC(C4)C2)C3)c(=O)n1Cc1ccc(-c2ccccc2-c2nnn[nH]2)nc1` [Compound 225], for which the IC50 is 160 nM.

Compound `CCCCn1nc(C(OCCC)OCCC)nc1Cc1ccc(-c2ccccc2-c2nnn[nH]2)nc1` [Compound 188] yielded an IC50 of 140 nM. The result for `CCCCc1nc(-c2ccccc2)n(Cc2ccc(-c3ccccc3-c3nnn[nH]3)cc2)n1` [Compound 33] reads 630 nM; that for `CCCCc1nc(C23CC4CC(CC(C4)C2)C3)n(Cc2ccc(-c3ccccc3-c3nnn[nH]3)cc2)n1` [Compound 66], 12 nM.

Take `CCCCc1nc(C(=O)CCC)nn1Cc1ccc(-c2ccccc2-c2nnn[nH]2)cc1` [Compound 41]: the 50% inhibitory concentration (IC50) turned out to be 3700 nM. The result for `CCCc1cn(CCC)c(=O)n1Cc1ccc(-c2ccccc2-c2nnn[nH]2)nc1` [Compound 197] reads 14 nM; that for `CCCCn1nc(CCc2ccccc2)nc1Cc1ccc(-c2ccccc2-c2nnn[nH]2)cc1` [Compound 142], 2 nM; that for `CCCCc1nc(C(=O)CCC)nn1Cc1ccc(-c2ccccc2-c2nnn[nH]2)cc1` [Compound 42], 370 nM. The result for `CCCCc1nc(CN)nn1Cc1ccc(-c2ccccc2-c2nnn[nH]2)cc1` [Compound 38] reads 10 nM; that for `CCCCc1nc(CF)nn1Cc1ccc(-c2ccccc2-c2nnn[nH]2)cc1` [Compound 70], 44 nM. `CCCCc1nc(CCC(=O)O)n(Cc2ccc(-c3ccccc3-c3nnn[nH]3)cc2)n1` [Compound 75] yielded an IC50 of 570 nM.

Usually IC50 stands for the concentration that gives 50% inhibition. Higher therefore signals weaker potency in that assay.
